ChEMBL document CHEMBL1201862, “PubChem BioAssay data set” (2004)
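Dose response: 5 concentrations. Exposure: 48 h. Format: 96-well plates. Endpoint: linear interpolation; highest concentration if not reached. Abbreviation: GI50, concentration required for 50% inhibition of growth.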 Activity calls are given as the source filed them. No stated cut-off is given here; in the data, active = GI50 up to about 1.1 µM and inactive = higher.

What was measured:
Experiment in all cases: NCI tumour cell line growth inhibition, 48 h
[1] = system: HCT-116
[2] = system: EKVX
[3] = system: COLO 205
[4] = system: HCT-15
[5] = system: SNB-75
[6] = system: SNB-19
[7] = system: SK-MEL-5
[8] = system: KM-20L2
[9] = system: SK-MEL-28
[10] = system: SNB-78
[11] = system: SK-OV-3
[12] = system: TK-10
[13] = system: LXFL 529
[14] = system: DMS-273
[15] = system: HL-60
[16] = system: U-251
[17] = system: SF-295
[18] = system: HOP-18
[19] = system: OVCAR-8
[20] = system: HOP-92
[21] = system: OVCAR-3
[22] = system: NCI-H460
[23] = system: RXF 393
[24] = system: UACC-62
[25] = system: HOP-62
[26] = system: OVCAR-4
[27] = system: SF-268
[28] = system: XF498
[29] = system: ACHN
[30] = system: DMS-114
[31] = system: RXF 631
[32] = system: NCI-H23
[33] = system: CCRF-CEM
[34] = system: NCI-H522
[35] = system: UACC-257
[36] = system: HCC 2998
[37] = system: Malme-3M
[38] = system: K562
[39] = system: M19-MEL
[40] = system: OVCAR-5
[41] = system: 786-0
[42] = system: KM12
[43] = system: IGROV-1
[44] = system: NCI-H226
[45] = system: A498
[46] = system: SF-539
[47] = system: RPMI-8226
[48] = system: UO-31
[49] = system: DLD-1
[50] = system: MOLT-4
[51] = system: CAKI-1
[52] = system: LOX IMVI
[53] = system: HT-29
[54] = system: A549
[55] = system: M14
[56] = system: SN12C
[57] = system: SW-620

N#CCCN(CCC#N)c1ccc(C(=O)NN)cc1
GI50 [1]: > 100 µM (inactive)
GI50 [2]: > 100 µM (inactive)
GI50 [3]: > 100 µM (inactive)
GI50 [4]: > 100 µM
GI50 [5]: > 100 µM (inactive)
GI50 [6]: > 100 µM (inactive)
GI50 [7]: > 100 µM (inactive)
GI50 [8]: > 100 µM (inactive)
GI50 [9]: > 100 µM (inactive)
GI50 [10]: > 100 µM (inactive)
GI50 [11]: > 100 µM (inactive)
GI50 [12]: > 100 µM (inactive)
GI50 [13]: > 100 µM (inactive)
GI50 [14]: > 100 µM (inactive)
GI50 [15]: > 100 µM (inactive)
GI50 [16]: > 100 µM (inactive)
GI50 [17]: > 100 µM (inactive)
GI50 [18]: > 100 µM (inactive)
GI50 [19]: > 100 µM (inactive)
GI50 [20]: > 100 µM (inactive)
GI50 [21]: > 100 µM (inactive)
GI50 [22]: > 100 µM (inactive)
GI50 [23]: > 100 µM (inactive)
GI50 [24]: > 100 µM (inactive)
GI50 [25]: > 100 µM (inactive)
GI50 [26]: > 100 µM (inactive)
GI50 [27]: > 100 µM (inactive)
GI50 [28]: > 100 µM (inactive)
GI50 [29]: > 100 µM (inactive)
GI50 [30]: > 100 µM (inactive)
GI50 [31]: > 100 µM (inactive)
GI50 [32]: > 100 µM (inactive)
GI50 [33]: > 100 µM (inactive)
GI50 [34]: > 100 µM (inactive)
GI50 [35]: > 100 µM (inactive)
GI50 [36]: > 100 µM (inactive)
GI50 [37]: > 100 µM (inactive)
GI50 [38]: > 100 µM (inactive)
GI50 [39]: > 100 µM (inactive)
GI50 [40]: > 100 µM (inactive)
GI50 [41]: > 100 µM (inactive)
GI50 [42]: > 100 µM (inactive)
GI50 [43]: > 100 µM (inactive)
GI50 [44]: > 100 µM (inactive)
GI50 [45]: > 100 µM (inactive)
GI50 [46]: > 100 µM (inactive)
GI50 [47]: > 100 µM (inactive)
GI50 [48]: > 100 µM (inactive)
GI50 [49]: > 100 µM (inactive)
GI50 [50]: > 100 µM (inactive)
GI50 [51]: > 100 µM (inactive)
GI50 [52]: > 100 µM (inactive)
GI50 [53]: > 100 µM (inactive)
GI50 [54]: > 100 µM (inactive)
GI50 [55]: > 100 µM (inactive)
GI50 [56]: > 100 µM (inactive)
GI50 [57]: > 100 µM (inactive)
